Earlier results in patent US20230310615A1, “OPHTHALMIC COMPOSITIONS” (Alcon Inc., priority 2022, published 2023).

Conditions: dissociation constant of the dibasic compound

pKa1: 6.8
pKa2: 9.5
Compound: OCC(CO)(CO)NCCCNC(CO)(CO)CO [bis-TRIS-propane, 1,3-bis(tris[hydroxymethyl]methylamino)propane]
